Measured values: patent publication US20070281992A1, “COMBINATION OF GYRASE B INHIBITORS AND PROTEIN SYNTHESIS INHIBITORS AND USES THEREOF” (priority 2006, published 2007)
Like-named read-outs stand apart in the source and are kept apart here.

Columns and labels:
Type in all cases: cell-based
[1] = tested on: Methicillin-Resistant Staphylococcus aureus Isolates; test: MIC assay (NCCLS broth dilution), MRSA clinical isolates; conditions: for MIC Range / MIC50 / MIC90: 52 MRSA isolates, combinations at 2.5:1, given as NB/partner; for MIC / MIC50 / MIC90: Staphylococcus aureus; for MIC: read-out: Minimal Inhibitory Concentration
Method: (§1) Antibiotics: novobiocin, tetracycline, minocycline, oxacillin, and vancomycin were all purchased from Sigma-Aldrich. Linezolid was obtained from Pfizer, Inc. Novobiocin/tetracycline and novobiocin/minocycline were tested in a 2.5:1 ratio to mimic the serum levels. (Vavra, J. J., 1967, Development of resistance to novobiocin, tetracycline, and novobiocin-tetracycline combinations in Staphylococcus aureus populations, J. Bacteriol 93(3):801). Compounds were tested across a concentration range consisting of 11 two-fold serial dilutions of test agent.
(§2) Stock solutions were prepared in sterile deionized water; novobiocin stock concentration was 1600 μg/mL and all other drugs stock solutions were prepared at 640 μg/mL. The stock solutions were allowed to sit at room temperature for one hour to auto-sterilize prior to use in the test. All compounds were in solution in water. The control agent was vancomycin hydrochloride, Sigma Chemical Lot # 015K0825.
(§3) The test organisms for the assay were 52 MSSA, 52 MRSA, 8 VISA, 7 VISE, and 3 LRSA isolates. Quality control strains included Staphylococcus aureus 0100 (ATCC 29213) and Enterococcus faecalis (ATCC 29212).
(§4) The MIC assay was performed according to published NCCLS guidelines. (National Committee for Clinical Laboratory Standards, Methods for Dilution Antimicrobial Susceptibility Tests for Bacteria that Grow Aerobically; Approved Standard-Sixth Edition, NCCLS Document M7-A6 [ISBN 1-56238-486-4], NCCLS, 940 West Valley Road, Suite 1400, Wayne, Pa. 19087-1898 USA, 2003). The test medium was Mueller Hinton II Broth for all organisms.

[2] = tested on: Vancomycin-intermediate Staphylococcus epidermidis Isolates; test: MIC assay (NCCLS broth dilution), VISE isolates; conditions: for MIC Range / MIC50: 4 VISE isolates, combinations at 2.5:1; for MIC / MIC50: Staphylococcus epidermidis; for MIC: read-out: Minimal Inhibitory Concentration
Method: as §1, §2, §3, §4

[3] = tested on: Staphylococcus aureus 0100 (ATCC 29213); test: MIC assay, quality control strain S. aureus ATCC 29213; conditions: ATCC29213, S. aureus ATCC 29213, repeat runs 22FEB06-09MAR06, combinations at 2.5:1, read-out: Minimal Inhibitory Concentration, quality control
Method: as §1, §2, §3, §4

CO[C@@H]1[C@@H](OC(N)=O)[C@@H](O)[C@H](Oc2ccc3c(O)c(NC(=O)c4ccc(O)c(CC=C(C)C)c4)c(=O)oc3c2C)OC1(C)C [NB, novobiocin]
0.08 µg/mL: MIC ([1]; MRSA isolate 758, 03MAR06) | MIC ([1]; MRSA isolate 760, 03MAR06) | MIC ([1]; MRSA isolate 763, 22FEB06) | MIC ([1]; MRSA isolate 766, 22FEB06) | MIC ([1]; MRSA isolate 771, 22FEB06) | MIC ([1]; MRSA isolate 887, 24FEB06) | MIC ([1]; MRSA isolate 1015, 22FEB06) | MIC ([1]; MRSA isolate 1017, 22FEB06) | MIC ([1]; MRSA isolate 1222, 03MAR06) | MIC ([1]; MRSA isolate 1222, 24FEB06) | MIC ([1]; MRSA isolate 1658, 03MAR06) | MIC ([1]; MRSA isolate 1659, 03MAR06) | MIC ([1]; MRSA isolate 1729, 03MAR06) | MIC ([2]; VISE isolate 2020, 09MAR06)
≦.04-.08 μg/ml: MIC Range [2]
≦.04-.62 μg/ml: MIC Range [1]
0.62 µg/mL: MIC ([1]; MRSA isolate 1137, 22FEB06)
< 0.04 µg/mL: MIC ([2]; VISE isolate 2023, 03MAR06)
0.312 µg/mL: MIC90 [1]
0.15 µg/mL: MIC ([1]; MRSA isolate 758, 24FEB06) | MIC ([1]; MRSA isolate 760, 24FEB06) | MIC ([1]; MRSA isolate 765, 22FEB06) | MIC ([1]; MRSA isolate 767, 22FEB06) | MIC ([1]; MRSA isolate 768, 22FEB06) | MIC ([1]; MRSA isolate 769, 22FEB06) | MIC ([1]; MRSA isolate 772, 22FEB06) | MIC ([1]; MRSA isolate 775, 24FEB06) | MIC ([1]; MRSA isolate 776, 24FEB06) | MIC ([1]; MRSA isolate 886, 24FEB06) | MIC ([1]; MRSA isolate 888, 24FEB06) | MIC ([1]; MRSA isolate 889, 24FEB06) | MIC ([1]; MRSA isolate 1014, 22FEB06) | MIC ([1]; MRSA isolate 1021, 22FEB06) | MIC ([1]; MRSA isolate 1023, 22FEB06) | MIC ([1]; MRSA isolate 1024, 22FEB06) | MIC ([1]; MRSA isolate 1025, 22FEB06) | MIC ([1]; MRSA isolate 1138, 22FEB06) | MIC ([1]; MRSA isolate 1730, 24FEB06) | MIC ([1]; MRSA isolate 2010, 24FEB06) | MIC ([1]; MRSA isolate 2011, 24FEB06) | MIC50 [1]
≤ 0.04 µg/mL: MIC ([1]; MRSA isolate 770, 22FEB06) | MIC ([1]; MRSA isolate 777, 24FEB06) | MIC ([1]; MRSA isolate 778, 24FEB06) | MIC ([1]; MRSA isolate 1653, 03MAR06) | MIC ([1]; MRSA isolate 1661, 03MAR06) | MIC ([1]; MRSA isolate 2009, 24FEB06) | MIC ([2]; VISE isolate 2021, 09MAR06) | MIC ([2]; VISE isolate 2022, 03MAR06) | MIC50 [2]
0.31 µg/mL: MIC ([1]; MRSA isolate 757, 24FEB06) | MIC ([1]; MRSA isolate 773, 24FEB06) | MIC ([1]; MRSA isolate 774, 24FEB06) | MIC ([1]; MRSA isolate 1004, 24FEB06) | MIC ([1]; MRSA isolate 1010, 22FEB06) | MIC ([1]; MRSA isolate 1012, 22FEB06) | MIC ([1]; MRSA isolate 1013, 22FEB06) | MIC ([1]; MRSA isolate 1016, 22FEB06) | MIC ([1]; MRSA isolate 1022, 22FEB06) | MIC ([1]; MRSA isolate 1135, 22FEB06) | MIC ([1]; MRSA isolate 1136, 22FEB06)

CN(C)c1ccc(O)c2c1C[C@H]1C[C@H]3[C@H](N(C)C)C(O)=C(C(N)=O)C(=O)[C@@]3(O)C(O)=C1C2=O [MI, minocycline]
.06 to .25 µg/mL: MIC Range [2]
.06 to .16 µg/mL: MIC Range [1]
1 µg/mL: MIC ([1]; MRSA isolate 2009, 24FEB06)
0.12 µg/mL: MIC [3] | MIC ([1]; MRSA isolate 758, 03MAR06) | MIC ([1]; MRSA isolate 758, 24FEB06) | MIC ([1]; MRSA isolate 760, 03MAR06) | MIC ([1]; MRSA isolate 760, 24FEB06) | MIC ([1]; MRSA isolate 763, 22FEB06) | MIC ([1]; MRSA isolate 766, 22FEB06) | MIC ([1]; MRSA isolate 767, 22FEB06) | MIC ([1]; MRSA isolate 769, 22FEB06) | MIC ([1]; MRSA isolate 770, 22FEB06) | MIC ([1]; MRSA isolate 771, 22FEB06) | MIC ([1]; MRSA isolate 772, 22FEB06) | MIC ([1]; MRSA isolate 773, 24FEB06) | MIC ([1]; MRSA isolate 774, 24FEB06) | MIC ([1]; MRSA isolate 775, 24FEB06) | MIC ([1]; MRSA isolate 776, 24FEB06) | MIC ([1]; MRSA isolate 777, 24FEB06) | MIC ([1]; MRSA isolate 886, 24FEB06) | MIC ([1]; MRSA isolate 887, 24FEB06) | MIC ([1]; MRSA isolate 888, 24FEB06) | MIC ([1]; MRSA isolate 889, 24FEB06) | MIC ([1]; MRSA isolate 1004, 24FEB06) | MIC ([1]; MRSA isolate 1010, 22FEB06) | MIC ([1]; MRSA isolate 1012, 22FEB06) | MIC ([1]; MRSA isolate 1013, 22FEB06) | MIC ([1]; MRSA isolate 1014, 22FEB06) | MIC ([1]; MRSA isolate 1015, 22FEB06) | MIC ([1]; MRSA isolate 1016, 22FEB06) | MIC ([1]; MRSA isolate 1017, 22FEB06) | MIC ([1]; MRSA isolate 1021, 22FEB06) | MIC ([1]; MRSA isolate 1022, 22FEB06) | MIC ([1]; MRSA isolate 1023, 22FEB06) | MIC ([1]; MRSA isolate 1024, 22FEB06) | MIC ([1]; MRSA isolate 1025, 22FEB06) | MIC ([1]; MRSA isolate 1135, 22FEB06) | MIC ([1]; MRSA isolate 1136, 22FEB06) | MIC ([1]; MRSA isolate 1137, 22FEB06) | MIC ([1]; MRSA isolate 1138, 22FEB06) | MIC ([1]; MRSA isolate 1222, 24FEB06) | MIC ([1]; MRSA isolate 1661, 03MAR06) | MIC ([1]; MRSA isolate 1730, 24FEB06) | MIC ([1]; MRSA isolate 2010, 24FEB06) | MIC ([1]; MRSA isolate 2011, 24FEB06) | MIC50 [1] | MIC90 [1] | MIC ([2]; VISE isolate 2020, 09MAR06)
16 µg/mL: MIC ([1]; MRSA isolate 1729, 03MAR06)
0.06 µg/mL: MIC ([1]; MRSA isolate 765, 22FEB06) | MIC ([1]; MRSA isolate 768, 22FEB06) | MIC ([1]; MRSA isolate 778, 24FEB06) | MIC ([1]; MRSA isolate 1222, 03MAR06) | MIC ([1]; MRSA isolate 1653, 03MAR06) | MIC ([1]; MRSA isolate 1658, 03MAR06) | MIC ([1]; MRSA isolate 1659, 03MAR06) | MIC ([2]; VISE isolate 2021, 09MAR06) | MIC ([2]; VISE isolate 2023, 03MAR06) | MIC50 [2]
0.25 µg/mL: MIC ([2]; VISE isolate 2022, 03MAR06)
8 µg/mL: MIC ([1]; MRSA isolate 757, 24FEB06)
